{"source": "patent US12077503B2", "about": "“Substituted cyclic amides and their use as herbicides” (FMC CORPORATION, priority 2015, dated 2024)", "type_in_all_cases": "in vivo", "key": {"[1]": {"tested_on": "Kochia (Kochia scoparia)", "assay": "Test A postemergence", "conditions": "Bassia scoparia, post-emergence, 240 h", "method_in_brief": "(§1)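 Ratings of 0 (no effect) to 100 (complete control) come from visual comparison with untreated controls roughly 10 d after treatment. Test chemicals, formulated in a non-phytotoxic solvent mixture with surfactant, were applied either as a preemergence directed soil spray on seeded soil or postemergence to one- to two-leaf plants 2 to 10 cm tall.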"}, "[2]": {"tested_on": "Galium (catchweed bedstraw, Galium aparine)", "assay": "Test A postemergence", "conditions": "Galium, post-emergence, 240 h", "method_in_brief": "as §1"}, "[3]": {"tested_on": "wheat (Triticum aestivum)", "assay": "Test A postemergence", "conditions": "Triticum aestivum, post-emergence, 240 h", "method_in_brief": "as §1"}, "[4]": {"tested_on": "ragweed (common ragweed, Ambrosia elatior)", "assay": "Test A postemergence", "conditions": "Ambrosia artemisiifolia, post-emergence, 240 h", "method_in_brief": "as §1"}, "[5]": {"tested_on": "giant foxtail (Setaria faberii)", "assay": "Test A postemergence", "conditions": "Setaria faberi, post-emergence, 240 h", "method_in_brief": "as §1"}, "[6]": {"tested_on": "ryegrass, Italian (Italian ryegrass, Lolium multiflorum)", "assay": "Test A postemergence", "conditions": "Lolium multiflorum, post-emergence, 240 h", "method_in_brief": "as §1"}, "[7]": {"tested_on": "pigweed (Amaranthus retroflexus)", "assay": "Test A postemergence", "conditions": "Amaranthus retroflexus, post-emergence, 240 h", "method_in_brief": "as §1"}, "[8]": {"tested_on": "blackgrass (Alopecurus myosuroides)", "assay": "Test A postemergence", "conditions": "Alopecurus myosuroides, post-emergence, 240 h", "method_in_brief": "as §1"}, "[9]": {"tested_on": "corn (Zea mays)", "assay": "Test A postemergence", "conditions": "Zea mays, post-emergence, 240 h", "method_in_brief": "as §1"}, "[10]": {"tested_on": "barnyardgrass (Echinochloa crus-galli)", "assay": "Test A postemergence", "conditions": "Echinochloa crus-galli, post-emergence, 240 h", "method_in_brief": "as §1"}, "[11]": {"tested_on": "Kochia (Kochia scoparia)", "assay": "Test A preemergence", "conditions": "Bassia scoparia, pre-emergence, 240 h, 0 to 100 scale where 0 is no effect and 100 is complete control, read-out: Kochia plant response rating", "method_in_brief": "as §1"}, "[12]": {"tested_on": "ragweed (common ragweed, Ambrosia elatior)", "assay": "Test A preemergence", "conditions": "Ambrosia artemisiifolia, pre-emergence, 240 h, 0 to 100 scale where 0 is no effect and 100 is complete control, read-out: Ragweed plant response rating", "method_in_brief": "as §1"}, "[13]": {"tested_on": "giant foxtail (Setaria faberii)", "assay": "Test A preemergence", "conditions": "Setaria faberi, pre-emergence, 240 h, 0 to 100 scale where 0 is no effect and 100 is complete control, read-out: Foxtail, Giant plant response rating", "method_in_brief": "as §1"}, "[14]": {"tested_on": "ryegrass, Italian (Italian ryegrass, Lolium multiflorum)", "assay": "Test A preemergence", "conditions": "Lolium multiflorum, pre-emergence, 240 h, 0 to 100 scale where 0 is no effect and 100 is complete control, read-out: Ryegrass, Italian plant response rating", "method_in_brief": "as §1"}, "[15]": {"tested_on": "pigweed (Amaranthus retroflexus)", "assay": "Test A preemergence", "conditions": "Amaranthus retroflexus, pre-emergence, 240 h, 0 to 100 scale where 0 is no effect and 100 is complete control, read-out: Pigweed plant response rating"}, "[16]": {"tested_on": "barnyardgrass (Echinochloa crus-galli)", "assay": "Test A preemergence", "conditions": "Echinochloa crus-galli, pre-emergence, 240 h, 0 to 100 scale where 0 is no effect and 100 is complete control, read-out: Barnyardgrass plant response rating", "method_in_brief": "as §1"}, "[17]": {"tested_on": "ducksalad (Heteranthera limosa)", "assay": "Test B flooded paddy test", "conditions": "Heteranthera limosa, 250 g ai/ha, Flood; 0 to 100 scale where 0 is no effect and 100 is complete control; read-out: Ducksalad plant response rating", "method_in_brief": "(§2)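 Percent control, visually estimated after 13–15 d in the greenhouse on a 0–100 basis, compares treated pots with untreated ones; compound was put into paddy water 3 cm above the soil when plants had two leaves.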"}, "[18]": {"tested_on": "sedge, umbrella (small-flower umbrella sedge, Cyperus difformis)", "assay": "Test B flooded paddy test", "conditions": "Cyperus difformis, 250 g ai/ha, Flood; 0 to 100 scale where 0 is no effect and 100 is complete control; read-out: Sedge, Umbrella plant response rating", "method_in_brief": "as §2"}, "[19]": {"tested_on": "rice (Oryra sativa)", "assay": "Test B flooded paddy test", "conditions": "Oryza sativa, 250 g ai/ha, Flood; 0 to 100 scale where 0 is no effect and 100 is complete control; read-out: Rice plant response rating", "method_in_brief": "as §2"}, "[20]": {"tested_on": "barnyardgrass (Echinochloa crus-galli)", "assay": "Test B flooded paddy test", "conditions": "Echinochloa crus-galli, 250 g ai/ha, Flood; 0 to 100 scale where 0 is no effect and 100 is complete control; read-out: Barnyardgrass plant response rating", "method_in_brief": "as §2"}, "[21]": {"conditions": "125 g ai/ha, preemergence, approx. 10 d"}}}
{"compound": "C=C(C)c1ccc([C@H]2CN(C)C(=O)[C@@H]2C(=O)Nc2cccc(F)c2F)cc1", "note": "[Compound 1149]", "values": [{"measurement": "pest or weed control at 125 g/ha", "setting": "[1]; 125 g ai/ha, postemergence, visual injury on 0 to 100 scale (0 no effect, 100 complete control), approx. 10 d, read-out: Kochia plant response rating", "value": 30, "unit": "%"}, {"measurement": "pest or weed control at 31 g/ha", "setting": "[1]; Postemergence, 31 g ai/ha, visual injury after approx. 10 d, 0 to 100 scale, 0 no effect, 100 complete control, read-out: Plant response rating, Kochia", "value": 0, "unit": "%"}, {"measurement": "pest or weed control at 125 g/ha", "setting": "[2]; 125 g ai/ha, postemergence, visual injury on 0 to 100 scale (0 no effect, 100 complete control), approx. 10 d, read-out: Galium plant response rating", "value": 50, "unit": "%"}, {"measurement": "pest or weed control at 31 g/ha", "setting": "[2]; Postemergence, 31 g ai/ha, visual injury after approx. 10 d, 0 to 100 scale, 0 no effect, 100 complete control, read-out: Plant response rating, Galium", "value": 20, "unit": "%"}, {"measurement": "plant injury at 125 g/ha", "setting": "[3]; 125 g ai/ha, postemergence, visual injury vs untreated controls after approx. 10 d, 0 = no effect, 100 = complete control, read-out: Wheat plant response rating (0 to 100 scale)", "value": 0, "unit": "%"}, {"measurement": "plant injury at 31 g/ha", "setting": "[3]; Postemergence, 31 g ai/ha, visual injury after approx. 10 d, 0 to 100 scale, 0 no effect, 100 complete control, read-out: Plant response rating, Wheat", "value": 0, "unit": "%"}, {"measurement": "pest or weed control at 125 g/ha", "setting": "[4]; 125 g ai/ha, postemergence, visual injury vs untreated controls after approx. 10 d, 0 = no effect, 100 = complete control, read-out: Ragweed plant response rating (0 to 100 scale)", "value": 0, "unit": "%"}, {"measurement": "pest or weed control at 31 g/ha", "setting": "[4]; Postemergence, 31 g ai/ha, visual injury after approx. 10 d, 0 to 100 scale, 0 no effect, 100 complete control, read-out: Plant response rating, Ragweed", "value": 0, "unit": "%"}, {"measurement": "pest or weed control at 125 g/ha", "setting": "[5]; 125 g ai/ha, postemergence, visual injury on 0 to 100 scale (0 no effect, 100 complete control), approx. 10 d, read-out: Foxtail, Giant plant response rating", "value": 80, "unit": "%"}, {"measurement": "pest or weed control at 31 g/ha", "setting": "[5]; Postemergence, 31 g ai/ha, visual injury after approx. 10 d, 0 to 100 scale, 0 no effect, 100 complete control, read-out: Plant response rating, Foxtail, Giant", "value": 40, "unit": "%"}, {"measurement": "pest or weed control at 125 g/ha", "setting": "[6]; 125 g ai/ha, postemergence, visual injury vs untreated controls after approx. 10 d, 0 = no effect, 100 = complete control, read-out: Ryegrass, Italian plant response rating (0 to 100 scale)", "value": 20, "unit": "%"}, {"measurement": "pest or weed control at 31 g/ha", "setting": "[6]; Postemergence, 31 g ai/ha, visual injury after approx. 10 d, 0 to 100 scale, 0 no effect, 100 complete control, read-out: Plant response rating, Ryegrass, Italian", "value": 0, "unit": "%"}, {"measurement": "pest or weed control at 125 g/ha", "setting": "[7]; 125 g ai/ha, postemergence, visual injury vs untreated controls after approx. 10 d, 0 = no effect, 100 = complete control, read-out: Pigweed plant response rating (0 to 100 scale)", "value": 0, "unit": "%"}, {"measurement": "pest or weed control at 31 g/ha", "setting": "[7]; Postemergence, 31 g ai/ha, visual injury after approx. 10 d, 0 to 100 scale, 0 no effect, 100 complete control, read-out: Plant response rating, Pigweed", "value": 0, "unit": "%"}, {"measurement": "pest or weed control at 125 g/ha", "setting": "[8]; 125 g ai/ha, postemergence, visual injury on 0 to 100 scale (0 no effect, 100 complete control), approx. 10 d, read-out: Blackgrass plant response rating", "value": 0, "unit": "%"}, {"measurement": "pest or weed control at 31 g/ha", "setting": "[8]; Postemergence, 31 g ai/ha, visual injury after approx. 10 d, 0 to 100 scale, 0 no effect, 100 complete control, read-out: Plant response rating, Blackgrass", "value": 0, "unit": "%"}, {"measurement": "plant injury at 125 g/ha", "setting": "[9]; 125 g ai/ha, postemergence, visual injury on 0 to 100 scale (0 no effect, 100 complete control), approx. 10 d, read-out: Corn plant response rating", "value": 0, "unit": "%"}, {"measurement": "Corn plant response rating (crop injury, 0 = no effect, 100 = complete kill) at 31 g/ha", "setting": "[9]; Postemergence, 31 g ai/ha, visual injury after approx. 10 d, 0 to 100 scale, 0 no effect, 100 complete control", "value": 0, "unit": "%"}, {"measurement": "pest or weed control at 125 g/ha", "setting": "[10]; 125 g ai/ha, postemergence, visual injury on 0 to 100 scale (0 no effect, 100 complete control), approx. 10 d, read-out: Barnyardgrass plant response rating", "value": 90, "unit": "%"}, {"measurement": "pest or weed control at 31 g/ha", "setting": "[10]; Postemergence, 31 g ai/ha, visual injury after approx. 10 d, 0 to 100 scale, 0 no effect, 100 complete control, read-out: Plant response rating, Barnyardgrass", "value": 50, "unit": "%"}, {"measurement": "pest or weed control at 31 g/ha", "setting": "[11]; 31 g ai/ha, Preemergence", "value": 0, "unit": "%"}, {"measurement": "pest or weed control at 125 g/ha", "setting": "[11]; [21]", "value": 20, "unit": "%"}, {"measurement": "pest or weed control at 31 g/ha", "setting": "[12]; 31 g ai/ha, Preemergence", "value": 0, "unit": "%"}, {"measurement": "pest or weed control at 125 g/ha", "setting": "[12]; [21]", "value": 0, "unit": "%"}, {"measurement": "pest or weed control at 31 g/ha", "setting": "[13]; 31 g ai/ha, Preemergence", "value": 80, "unit": "%"}, {"measurement": "pest or weed control at 125 g/ha", "setting": "[13]; [21]", "value": 90, "unit": "%"}, {"measurement": "pest or weed control at 31 g/ha", "setting": "[14]; 31 g ai/ha, Preemergence", "value": 0, "unit": "%"}, {"measurement": "pest or weed control at 125 g/ha", "setting": "[14]; [21]", "value": 20, "unit": "%"}, {"measurement": "pest or weed control at 31 g/ha", "setting": "[15]; 31 g ai/ha, Preemergence", "value": 0, "unit": "%"}, {"measurement": "pest or weed control at 125 g/ha", "setting": "[15]; [21]", "value": 40, "unit": "%"}, {"measurement": "pest or weed control at 31 g/ha", "setting": "[16]; 31 g ai/ha, Preemergence", "value": 70, "unit": "%"}, {"measurement": "pest or weed control at 125 g/ha", "setting": "[16]; [21]", "value": 90, "unit": "%"}, {"measurement": "pest or weed control at 250 g/ha", "setting": "[17]", "value": 75, "unit": "%"}, {"measurement": "pest or weed control at 250 g/ha", "setting": "[18]", "value": 0, "unit": "%"}, {"measurement": "pest or weed control at 250 g/ha", "setting": "[19]", "value": 30, "unit": "%"}, {"measurement": "pest or weed control at 250 g/ha", "setting": "[20]", "value": 45, "unit": "%"}]}
